Results: patent publication US20130017265A1, “PARTICLES FOR MULTIPLE AGENT DELIVERY” (MASSACHUSETTS INSTITUTE OF TECHNOLOGY, priority 2009, published 2013)

Legend:
PC3 cells = assay: MTT cytotoxicity assay, PC3 cells; assay type: cell-based, human; conditions: for IC50: MTT, 12 hours treatment, further 48 hours, [Pt] = 25 * [Doce]
Method: (§1) The ability of the targeted drug releasing construct nanoparticles to promote cell death was determined using the MTT assay using human prostate cancer LNCaP and PC3 cells and compared against the standard compounds cisplatin and the Pt(IV)-monosuccinate prodrug. Human prostate cancer LNCaP and PC3 cells were obtained from the ATCC. […] The cells were incubated at 37° C. in 5% CO2 in RPMI growth medium supplemented with 10% fetal bovine serum and 1% penicillin/streptomycin. The cells were passaged every 3 to 4 days and restarted from the frozen stock upon reaching passage number 20. Cytotoxic activity of the constructs was evaluated using the MTT assay. Solutions of the different constructs were freshly prepared in sterile PBS before use. All platinum constructs were quantified by atomic absorption spectroscopy. LNCaP and PC3 cells were seeded on a 96-well plate in 100 μL RPMI media and incubated for 24 hours.
(§2) The cells were then treated with different constructs at varying concentrations and incubated for 12 hours at 37° C. Fresh medium was replaced after 12 hours incubation with nanoparticles, and the cells were incubated for a further 48 hours. The cells were then treated with 20 μL of 3-(4,5-dimethylthiazol-2-yl)-2,5-diphenyltetrazolium bromide (MTT) (5 mg/mL in PBS) and incubated for 5 hours. The medium was removed, the cells were lysed by adding 100 μL of DMSO, and the absorbance of the purple formazan was recorded at 550 nm using a microplate spectrophotometer. Each sample was assayed in triplicate in three independent experiments for each cell line.

LNCaP cells = assay: MTT cytotoxicity assay, LNCaP cells; assay type: cell-based, human; conditions: for IC50: MTT, 12 hours treatment, further 48 hours, [Pt] = 25 * [Doce]
Method: as §1, §2

| Compound | IC50 (PC3 cells) [µM] | IC50 (LNCaP cells) [µM] | effect on viability (PC3 cells; PC3 cells, compared with cisplatin, PolyPt-NP, PolyPt-NP-Apt) | effect on viability (LNCaP cells; LNCaP cells, compared with cisplatin, PolyPt-NP, PolyPt-NP-Apt) |
| --- | --- | --- | --- | --- |
| N.N.[Cl][Pt][Cl] [Cisplatin] | 9.9 | > 5 |  |  |
| c,c,t[Pt(NH3)Cl2(OH)(succinate)] [Pt-Monosuccinate] | 36 | 106 | least effect on viability | least effect on viability |
